Experimental data published in ChEMBL document CHEMBL1149541, “Potent macrocyclic antagonists to the motilin receptor presenting novel unnatural amino acids” (Bioorg Med Chem Lett, 2007).

How the values were obtained:
[1] = molecular target: T1, Motilin receptor (Homo sapiens, UniProt O43193); assay: Displacement of [125I]motilin from human motilin receptor expressed in CHO cells; format: cell-based
[2] = molecular target: T1, Motilin receptor; assay: Antagonist activity against human motilin receptor in aequoscreen cells assessed as inhibition of motilin induced calcium release by aequorin assay; format: functional, cell-based

T1 sequence (O43193 whole entry): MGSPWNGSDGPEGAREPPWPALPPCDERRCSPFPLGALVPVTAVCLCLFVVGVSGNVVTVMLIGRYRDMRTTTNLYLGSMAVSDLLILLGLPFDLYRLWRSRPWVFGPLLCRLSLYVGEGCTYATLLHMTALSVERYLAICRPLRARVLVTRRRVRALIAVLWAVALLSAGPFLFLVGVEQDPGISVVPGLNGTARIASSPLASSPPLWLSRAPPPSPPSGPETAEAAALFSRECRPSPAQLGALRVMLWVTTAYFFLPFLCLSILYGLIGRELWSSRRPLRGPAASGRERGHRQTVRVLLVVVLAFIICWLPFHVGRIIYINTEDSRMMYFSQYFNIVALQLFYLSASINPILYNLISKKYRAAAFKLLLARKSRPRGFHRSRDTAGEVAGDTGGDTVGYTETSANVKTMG

Row | Compound | Ki [1] [nM] | IC50 [2] [nM]
1 | CC(C)[C@H]1NC(=O)[C@@H](Cc2cccc(C(F)(F)F)c2)NCCOc2ccccc2CCCNC(=O)[C@H](CNc2ncccn2)NC1=O | 20 | 
2 | CC(C)[C@H]1NC(=O)[C@@H](Cc2ccc(Cl)cc2)NCCOc2ccccc2CCCNC(=O)[C@H](CN=C(N)N)NC1=O | 6 | 
3 | CC(=O)NC[C@@H]1NC(=O)[C@@H](C(C)C)NC(=O)[C@@H](Cc2ccc(O)cc2)NCCOc2ccccc2CCCNC1=O | 1950 | 
4 | CNC[C@@H]1NC(=O)[C@@H](C(C)C)NC(=O)[C@@H](Cc2ccc(Cl)cc2)NCCOc2ccccc2CCCNC1=O | 31 | 33
5 | CC(C)[C@H]1NC(=O)[C@@H](Cc2ccc(Cl)cc2)NCCOc2ccccc2CCCNC(=O)[C@H](CN(C)C)NC1=O | 16 | 
6 | CNC[C@@H]1NC(=O)[C@@H](C(C)C)NC(=O)[C@@H](Cc2cccc(C(F)(F)F)c2)NCCOc2ccccc2CCCNC1=O | 6 | 3
7 | CC(C)[C@H]1NC(=O)[C@@H](Cc2cccc(F)c2)NCCOc2ccccc2CCCNC(=O)[C@H](Cc2cscn2)NC1=O | 116 | 
8 | CC(C)[C@H]1NC(=O)[C@@H](Cc2cccc(Cl)c2)NCCOc2ccccc2CCCNC(=O)[C@H](CCC(=N)N)NC1=O | 27 | 
9 | Cc1cnnn1C[C@@H]1NC(=O)[C@@H](C(C)C)NC(=O)[C@@H](Cc2cccc(C(F)(F)F)c2)NCCOc2ccccc2CCCNC1=O | 17 | 
10 | CC(C)[C@H]1NC(=O)[C@@H](Cc2cccc(Cl)c2)NCCOc2ccccc2CCCNC(=O)[C@H](CNC2=NCCCN2)NC1=O | 87 | 
11 | CC(C)[C@H]1NC(=O)[C@@H](Cc2ccc(O)cc2)NCCOc2ccccc2/C=C/CNC(=O)[C@H](CCCN)NC1=O | 889 | 
12 | CC(C)[C@H]1NC(=O)[C@@H](Cc2ccc(O)cc2)NCCOc2ccccc2CCCNC(=O)[C@H](CN)NC1=O | 171 | 
13 | CC(C)[C@H]1NC(=O)[C@@H](Cc2cccc(C(F)(F)F)c2)NCCOc2ccccc2CCCNC(=O)[C@H](CN2CCCC2)NC1=O | 4.6 | 2
14 | CC(C)[C@H]1NC(=O)[C@@H](Cc2cccc(Cl)c2)NCCOc2ccccc2CCCNC(=O)[C@H](CN)NC1=O | 64 | 
15 | CC(C)[C@H]1NC(=O)[C@@H](Cc2cccc(C(F)(F)F)c2)NCCOc2ccccc2CCCNC(=O)[C@H](CNC(=N)N)NC1=O | 6 | 28
16 | CC(C)[C@H]1NC(=O)[C@@H](Cc2cccc(Cl)c2)NCCOc2ccccc2CCCNC(=O)[C@H](CN=C2NCCN2)NC1=O | 51 | 
17 | Cc1nnn(C[C@@H]2NC(=O)[C@@H](C(C)C)NC(=O)[C@@H](Cc3cccc(C(F)(F)F)c3)NCCOc3ccccc3CCCNC2=O)c1C | 23 | 
18 | CC(C)[C@H]1NC(=O)[C@@H](Cc2cccc(Cl)c2)NCCOc2ccccc2CCCNC(=O)[C@H](CCN=C(N)N)NC1=O | 33 | 

The remaining lines, values ahead:

Row | Ki [1] [nM] | IC50 [2] [nM] | Compound
19 | 342 |  | CC(C)[C@H]1NC(=O)[C@@H](Cc2ccc(O)cc2)NCCOc2ccccc2CCCNC(=O)[C@H](CCN)NC1=O
20 | 543 |  | CC(C)[C@H]1NC(=O)[C@@H](Cc2ccc(Cl)cc2)NCCOc2ccccc2CCCNC(=O)[C@H](CNC(N)=O)NC1=O
21 | 376 |  | CC(C)NC[C@@H]1NC(=O)[C@@H](C(C)C)NC(=O)[C@@H](Cc2ccc(O)cc2)NCCOc2ccccc2CCCNC1=O
22 | 15 | 8 | CC(C)[C@H]1NC(=O)[C@@H](Cc2cccc(C(F)(F)F)c2)NCCOc2ccccc2CCCNC(=O)[C@H](CN)NC1=O
23 | 60 |  | CC(C)[C@H]1NC(=O)[C@@H](Cc2ccc(Cl)cc2)NCCOc2ccccc2CCCNC(=O)[C@H](CN)NC1=O
24 | 57 |  | CC(C)[C@H]1NC(=O)[C@@H](Cc2cccc(Cl)c2)NCCOc2ccccc2CCCNC(=O)[C@H](CN=C(N)N)NC1=O
25 | 21 |  | Cc1nnnn1C[C@@H]1NC(=O)[C@@H](C(C)C)NC(=O)[C@@H](Cc2cccc(C(F)(F)F)c2)NCCOc2ccccc2CCCNC1=O
26 | 18 | 56 | CC(C)[C@H]1NC(=O)[C@@H](Cc2cccc(Cl)c2)NCCOc2ccccc2CCCNC(=O)[C@H](Cn2cccn2)NC1=O
27 | 62 |  | CC(C)[C@H]1NC(=O)[C@@H](Cc2cccc(Cl)c2)NCCOc2ccccc2CCCNC(=O)[C@H](Cn2ccnc2)NC1=O
28 | 41 |  | CC(C)[C@H]1NC(=O)[C@@H](Cc2cccc(Cl)c2)NCCOc2ccccc2CCCNC(=O)[C@H](CNc2nccs2)NC1=O
29 | 27 | 95 | CC(C)[C@H]1NC(=O)[C@@H](Cc2cccc(Cl)c2)NCCOc2ccccc2CCCNC(=O)[C@H](CN(C)C)NC1=O
30 | 100 |  | CC(C)[C@H]1NC(=O)[C@@H](Cc2cccc(Cl)c2)NCCOc2ccccc2CCCNC(=O)[C@H](CN/C(N)=N/C#N)NC1=O
